Test [1] can be described thus: Luminescence Cell-Based Dose Confirmation HTS to Identify Activators of 5'UTR Stem-Loop Driven Alpha-Synuclein mRNA Translation in H4 Neuroglioblastoma Cells. [Related pubchem assays: 1829 (Project Summary), 1814 (Primary HTS)]. The test is classed as functional.
The nature of test [2]: Luminescence Cell-Based Dose Response HTS to Identify Activators of Luciferase Translation or Activity in H4 […] Cells. [Related pubchem assays: 1829 (Project Summary), 1814 (Primary HTS)]. The test is classed as functional.
In another test the test system is H4. Kind of test: Luminescence Cell-Based Dose Response HTS to Identify Activators of 5'UTR Stem-Loop Driven Prion Protein mRNA Translation in H4 Neuroglioblastoma Cells. [Related pubchem assays: 1829 (Project Summary), 1814 (Primary HTS)]. The class given is functional. The conditions noted are these: Homo sapiens.
Test [3] addresses T1, Aryl hydrocarbon receptor (Homo sapiens, UniProt P35869).
T1 sequence (P35869 whole entry): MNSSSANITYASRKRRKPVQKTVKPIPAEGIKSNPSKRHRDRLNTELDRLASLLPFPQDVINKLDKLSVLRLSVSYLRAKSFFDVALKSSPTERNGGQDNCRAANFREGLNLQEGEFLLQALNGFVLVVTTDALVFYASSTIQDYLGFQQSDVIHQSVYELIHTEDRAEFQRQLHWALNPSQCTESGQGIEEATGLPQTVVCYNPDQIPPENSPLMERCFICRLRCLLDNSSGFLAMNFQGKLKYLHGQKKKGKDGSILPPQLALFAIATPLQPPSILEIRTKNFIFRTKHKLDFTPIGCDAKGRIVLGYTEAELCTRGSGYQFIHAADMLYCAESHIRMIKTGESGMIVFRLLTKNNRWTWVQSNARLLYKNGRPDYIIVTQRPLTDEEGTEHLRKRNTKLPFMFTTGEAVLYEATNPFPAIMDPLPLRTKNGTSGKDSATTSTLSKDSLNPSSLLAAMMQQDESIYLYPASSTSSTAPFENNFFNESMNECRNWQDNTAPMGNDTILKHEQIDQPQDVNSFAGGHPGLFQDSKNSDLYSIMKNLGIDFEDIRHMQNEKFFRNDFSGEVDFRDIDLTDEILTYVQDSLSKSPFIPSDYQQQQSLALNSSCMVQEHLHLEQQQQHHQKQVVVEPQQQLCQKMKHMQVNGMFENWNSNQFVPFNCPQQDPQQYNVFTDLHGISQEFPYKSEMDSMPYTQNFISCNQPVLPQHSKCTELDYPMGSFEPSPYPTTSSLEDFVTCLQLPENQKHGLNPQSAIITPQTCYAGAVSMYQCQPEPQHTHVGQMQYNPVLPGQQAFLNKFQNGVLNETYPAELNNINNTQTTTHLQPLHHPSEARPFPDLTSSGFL
Description: Luminescence-based cell-based high throughput dose response assay for activators of the Aryl Hydrocarbon Receptor (AHR). [Related pubchem assays: 2796 (Primary screen (AHR activators in singlicate)), 2845 (Confirmation screen (AHR activators in triplicate)), 434939 (Counterscreen (PXR activators in triplicate)), 2804 (Summary (AHR activators))]. The class given is ADME.

The target in test [4] is T2, Sentrin-specific protease 8 (Homo sapiens, UniProt Q96LD8).
T2 sequence (Q96LD8 whole entry): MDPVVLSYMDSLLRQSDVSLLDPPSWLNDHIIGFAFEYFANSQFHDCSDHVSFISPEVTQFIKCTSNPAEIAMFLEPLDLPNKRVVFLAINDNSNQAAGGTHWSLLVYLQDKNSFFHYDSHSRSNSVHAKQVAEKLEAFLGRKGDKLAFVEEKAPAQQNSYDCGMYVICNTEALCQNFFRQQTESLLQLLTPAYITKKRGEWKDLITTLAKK
The test is classed as functional.

The target of test [5] is T2, Sentrin-specific protease 8. The test is classed as functional. This is another data set of the same source.
In test [6] the target is T3, Sphingosine 1-phosphate receptor 4 (Homo sapiens, UniProt O95977).
T3 sequence (O95977 whole entry): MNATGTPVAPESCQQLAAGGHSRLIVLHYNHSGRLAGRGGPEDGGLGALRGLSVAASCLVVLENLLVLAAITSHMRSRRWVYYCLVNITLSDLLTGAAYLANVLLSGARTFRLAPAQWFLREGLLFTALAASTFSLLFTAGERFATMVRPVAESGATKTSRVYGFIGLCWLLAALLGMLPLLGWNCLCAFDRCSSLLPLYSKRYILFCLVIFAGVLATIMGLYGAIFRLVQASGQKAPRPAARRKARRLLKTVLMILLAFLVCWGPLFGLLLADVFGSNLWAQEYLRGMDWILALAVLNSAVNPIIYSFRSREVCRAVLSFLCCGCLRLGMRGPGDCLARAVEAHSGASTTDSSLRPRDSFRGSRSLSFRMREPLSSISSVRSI
Description: Fluorescence dose response cell-based high throughput screening assay for antagonists of the Sphingosine 1-Phosphate Receptor 4 (S1P4). [Related pubchem assays: 1524 (Confirmation in triplicates.), 1510 (Primary screen.)]. The test is classed as functional.

For test [7], the target named is Sphingosine 1-phosphate receptor 1 (Homo sapiens, UniProt P21453). The class given is functional.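 Also: Tango beta-arrestin reporter U2OS cells stimulated with S1P near its EC80; inhibitor potency meaning antagonism of receptor activation by the natural agonist.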
Chain of Sphingosine 1-phosphate receptor 1 (P21453 whole entry): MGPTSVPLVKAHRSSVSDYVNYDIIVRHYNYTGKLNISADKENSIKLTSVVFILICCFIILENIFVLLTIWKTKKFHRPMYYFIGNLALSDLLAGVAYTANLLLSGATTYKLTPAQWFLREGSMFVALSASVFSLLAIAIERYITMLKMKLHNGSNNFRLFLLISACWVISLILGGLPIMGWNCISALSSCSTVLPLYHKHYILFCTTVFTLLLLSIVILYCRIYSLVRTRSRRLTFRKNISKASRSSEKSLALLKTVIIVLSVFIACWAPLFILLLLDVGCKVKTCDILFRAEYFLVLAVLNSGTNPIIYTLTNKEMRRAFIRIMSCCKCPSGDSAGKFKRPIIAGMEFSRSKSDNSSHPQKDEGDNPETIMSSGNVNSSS
A short description of test [8]: THP-1 cell cytotoxicity, dose response, cytotoxicity control for non-replicating M. tuberculosis project (AID 489025). The test is classed as functional.
Test [9] can be described thus: HepG2 cell cytotoxicity, dose response, cytotoxicity control for non-replicating M. tuberculosis project (AID 489018). The conditions noted are these: Mycobacterium tuberculosis. The test is classed as functional.
Test [10] is described as follows: Vero E6 cell cytotoxicity, dose response, cytotoxicity control for non-replicating M. tuberculosis project, secondary assay (AID 492998). The test is classed as functional, VeroE6. The following applies: Vero C1008.
The next test can be described thus: cells. The test is classed as functional.
For test [11], the target named is T4, Replicative DNA helicase DnaB (Mycobacterium tuberculosis, UniProt P9WMR3).
T4 sequence (P9WMR3 whole entry): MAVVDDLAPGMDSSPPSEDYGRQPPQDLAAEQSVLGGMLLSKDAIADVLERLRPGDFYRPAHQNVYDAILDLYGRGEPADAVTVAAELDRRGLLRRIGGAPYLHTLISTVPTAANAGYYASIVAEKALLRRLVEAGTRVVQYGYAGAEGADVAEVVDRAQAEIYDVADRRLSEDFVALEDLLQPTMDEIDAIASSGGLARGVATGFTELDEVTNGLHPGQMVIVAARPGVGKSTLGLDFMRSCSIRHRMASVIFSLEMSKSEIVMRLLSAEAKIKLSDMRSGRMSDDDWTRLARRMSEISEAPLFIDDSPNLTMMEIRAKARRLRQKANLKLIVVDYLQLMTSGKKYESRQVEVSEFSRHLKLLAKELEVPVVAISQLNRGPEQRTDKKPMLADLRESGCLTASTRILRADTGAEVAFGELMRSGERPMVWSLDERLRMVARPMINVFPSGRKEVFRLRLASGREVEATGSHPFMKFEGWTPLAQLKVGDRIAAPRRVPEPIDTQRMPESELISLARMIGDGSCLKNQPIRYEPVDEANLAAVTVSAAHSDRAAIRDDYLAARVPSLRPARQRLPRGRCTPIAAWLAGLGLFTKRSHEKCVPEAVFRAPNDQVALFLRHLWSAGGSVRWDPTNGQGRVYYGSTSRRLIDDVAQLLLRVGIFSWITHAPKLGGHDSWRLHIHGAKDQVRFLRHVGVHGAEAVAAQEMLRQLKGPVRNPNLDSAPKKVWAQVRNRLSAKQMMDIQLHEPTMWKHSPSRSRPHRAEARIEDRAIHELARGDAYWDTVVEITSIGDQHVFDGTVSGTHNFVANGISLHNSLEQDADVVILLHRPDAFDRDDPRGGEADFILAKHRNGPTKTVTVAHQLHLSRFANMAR
Kind of test: DnaB intein splicing inhibitors, dose response, biochemical, cell-free fluorescence (AID 449749). The class given is functional.

The next test concerns the target T5, Protein RecA (Mycobacterium tuberculosis, UniProt P9WHJ3).
T5 sequence (P9WHJ3 whole entry): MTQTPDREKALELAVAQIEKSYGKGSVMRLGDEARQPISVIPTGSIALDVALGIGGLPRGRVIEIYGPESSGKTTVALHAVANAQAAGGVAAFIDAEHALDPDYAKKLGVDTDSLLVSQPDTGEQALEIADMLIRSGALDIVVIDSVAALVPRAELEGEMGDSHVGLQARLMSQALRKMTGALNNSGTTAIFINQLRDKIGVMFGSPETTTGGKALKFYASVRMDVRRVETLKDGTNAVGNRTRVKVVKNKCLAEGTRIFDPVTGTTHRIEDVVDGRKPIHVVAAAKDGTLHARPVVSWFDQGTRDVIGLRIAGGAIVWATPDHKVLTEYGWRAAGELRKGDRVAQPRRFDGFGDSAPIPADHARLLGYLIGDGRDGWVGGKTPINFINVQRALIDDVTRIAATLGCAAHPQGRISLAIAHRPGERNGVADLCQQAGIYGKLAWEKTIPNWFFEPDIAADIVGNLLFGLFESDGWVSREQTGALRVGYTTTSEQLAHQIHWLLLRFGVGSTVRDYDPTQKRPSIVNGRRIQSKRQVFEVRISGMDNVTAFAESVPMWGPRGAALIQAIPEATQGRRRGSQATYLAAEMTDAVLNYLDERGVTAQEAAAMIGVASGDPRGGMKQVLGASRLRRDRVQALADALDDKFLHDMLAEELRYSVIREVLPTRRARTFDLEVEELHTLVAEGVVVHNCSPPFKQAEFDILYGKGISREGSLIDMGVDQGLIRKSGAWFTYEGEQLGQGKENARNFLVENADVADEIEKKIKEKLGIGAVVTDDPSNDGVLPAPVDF
Kind of test: Fluorescence Cell-Free Homogeneous Dose Retest to Identify Inhibitors of RecA-Intein Splicing Activity. [Related pubchem assays (depositor defined):AID2097, AID2223, AID489010, AID492950]. The test is classed as functional.

Another test has as its system INS1. Kind of test: beta cell apoptosis inhibitors, cytokine rescue, dose response, luminescence, retest (AID 449756).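 Also: cell death triggered by IL-1 beta plus TNF-alpha plus IFN-gamma mixture; protective hits raise ATP signal compared with cytokine alone wells.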 The following applies: Rattus norvegicus. The class given is functional, cell-based.
The nature of test [12]: Shn3 3'UTR reporter inhibitors, dose response, cell-based, Clone20 osteoblasts, firefly luciferase, cherry-picked (AID 624132).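 Also: firefly luciferase luminescence from reporter carrying the Shn3 3'UTR in osteoblasts.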 The class given is functional.
A short description of test [13]: HepG2 cell cytotoxicity, dose response, cytotoxicity control for Shn3 inhibitor project, CellTiter-Glo, cherry-picked (AID 624134). The class given is functional, cell-based. For orientation: ATP-based viability assays read luminescence as a measure of living cells.
Test [14] in a line: control 3'UTR Renilla luciferase suppression, dose response, counter-screen for Shn3 inhibitor project, cell-based, Clone20-Shn3RL, cherry-picked (AID 624133). The class given is functional. On the technique in general: A counterscreen serves to expose hits that act by an unwanted route or on another target.
Test [15] in a line: Fluorescence-based cell-based high throughput dose response assay for inhibitors of the interaction of nucleotide-binding oligomerization domain containing 2 (NOD2) and the receptor-interacting serine-threonine kinase 2 (RIPK2). The test is classed as functional. The following applies: Homo sapiens.
A further test addresses Beta Lactamase (Pseudomonas aeruginosa, UniProt Q932Y6). Description: beta-lactamase reporter inhibitor potency, dose response, artefact control for NOD2-RIPK2 interaction inhibitor project, BLA reporter cells, FRET fluorescence (AID 651552). The class given is functional, cell-based.
Test [16] deals with HEK293. Description: cells. The conditions noted are these: Homo sapiens.
For test [17], the system named is HEK293. Kind of test: cells. The conditions noted are these: Homo sapiens. This is another data set of the same source.
The subject of another test is H9c2. Kind of test: cells. The test is classed as functional, cell-based. The following applies: Rattus norvegicus, H9c2, Myocardium.
Test [18] addresses Arf-GAP with SH3 domain, ANK repeat and PH domain-containing protein 1 (Homo sapiens, UniProt Q9ULH1). The test is classed as functional.
A short description of test [19]: Counterscreen for inhibitors of Trypanosoma brucei methionyl tRNA synthetase (MetRS): Luminescence-based cell-based high throughput dose response assay to identify compounds that are cytotoxic to Jurkat human T lymphocyte cells. The test is classed as functional.
A further test concerns the target Mu-type opioid receptor (Homo sapiens, UniProt P35372). The class given is functional, cell-based.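 Also: U2OS cells with beta-arrestin recruitment to OPRM1 by beta-gal complementation.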

Counter-ions that a name gives are not always drawn. Activity calls are given as the source filed them.

In general, EC50 refers to the concentration needed to bring the measured effect to its halfway point. In general, IC50 refers to the concentration that gives 50% inhibition. Usually CC50 stands for the concentration that lowers cell viability or growth by half. One may read the AC50 as the concentration giving half of the maximal activity seen.

Chain of Arf-GAP with SH3 domain, ANK repeat and PH domain-containing protein 1 (Q9ULH1 whole entry, the tested form may be a part): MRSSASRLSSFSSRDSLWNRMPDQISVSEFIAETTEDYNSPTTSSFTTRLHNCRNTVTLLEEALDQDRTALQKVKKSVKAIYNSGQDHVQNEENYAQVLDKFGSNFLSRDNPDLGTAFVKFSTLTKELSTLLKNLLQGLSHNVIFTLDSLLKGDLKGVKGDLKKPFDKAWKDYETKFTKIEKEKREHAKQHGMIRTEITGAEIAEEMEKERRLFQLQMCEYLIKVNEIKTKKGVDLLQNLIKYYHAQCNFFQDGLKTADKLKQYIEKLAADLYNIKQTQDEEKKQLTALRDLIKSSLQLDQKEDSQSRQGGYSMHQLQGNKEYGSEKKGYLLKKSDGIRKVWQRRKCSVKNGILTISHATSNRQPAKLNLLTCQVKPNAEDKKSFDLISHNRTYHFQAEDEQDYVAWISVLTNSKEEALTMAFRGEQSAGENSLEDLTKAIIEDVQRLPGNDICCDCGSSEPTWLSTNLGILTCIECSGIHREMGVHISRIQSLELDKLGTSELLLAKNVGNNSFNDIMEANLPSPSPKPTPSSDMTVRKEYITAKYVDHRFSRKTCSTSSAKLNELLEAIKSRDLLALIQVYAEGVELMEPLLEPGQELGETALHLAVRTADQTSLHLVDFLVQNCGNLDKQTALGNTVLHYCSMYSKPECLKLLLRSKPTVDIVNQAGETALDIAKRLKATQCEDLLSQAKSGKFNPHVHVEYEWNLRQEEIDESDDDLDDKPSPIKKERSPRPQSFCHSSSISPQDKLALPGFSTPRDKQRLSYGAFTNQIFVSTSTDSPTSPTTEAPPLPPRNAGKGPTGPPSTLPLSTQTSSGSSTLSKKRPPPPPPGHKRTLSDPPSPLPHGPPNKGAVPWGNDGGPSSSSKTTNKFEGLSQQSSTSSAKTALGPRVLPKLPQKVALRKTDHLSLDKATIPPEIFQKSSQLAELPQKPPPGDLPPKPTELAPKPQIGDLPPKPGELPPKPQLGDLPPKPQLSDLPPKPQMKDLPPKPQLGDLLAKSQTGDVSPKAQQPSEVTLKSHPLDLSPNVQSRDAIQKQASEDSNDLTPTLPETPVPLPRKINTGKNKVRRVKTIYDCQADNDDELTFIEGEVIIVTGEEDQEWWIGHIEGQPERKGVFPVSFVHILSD
Chain of Beta Lactamase (Q932Y6 whole entry): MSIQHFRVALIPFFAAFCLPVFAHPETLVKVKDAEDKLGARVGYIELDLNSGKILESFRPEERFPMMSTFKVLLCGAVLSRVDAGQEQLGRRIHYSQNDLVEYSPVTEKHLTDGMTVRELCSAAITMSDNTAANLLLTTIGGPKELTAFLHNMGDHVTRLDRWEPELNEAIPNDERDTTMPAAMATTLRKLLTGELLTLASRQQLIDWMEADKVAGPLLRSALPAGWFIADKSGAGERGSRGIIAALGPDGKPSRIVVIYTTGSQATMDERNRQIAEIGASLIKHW
Chain of Mu-type opioid receptor (P35372 whole entry): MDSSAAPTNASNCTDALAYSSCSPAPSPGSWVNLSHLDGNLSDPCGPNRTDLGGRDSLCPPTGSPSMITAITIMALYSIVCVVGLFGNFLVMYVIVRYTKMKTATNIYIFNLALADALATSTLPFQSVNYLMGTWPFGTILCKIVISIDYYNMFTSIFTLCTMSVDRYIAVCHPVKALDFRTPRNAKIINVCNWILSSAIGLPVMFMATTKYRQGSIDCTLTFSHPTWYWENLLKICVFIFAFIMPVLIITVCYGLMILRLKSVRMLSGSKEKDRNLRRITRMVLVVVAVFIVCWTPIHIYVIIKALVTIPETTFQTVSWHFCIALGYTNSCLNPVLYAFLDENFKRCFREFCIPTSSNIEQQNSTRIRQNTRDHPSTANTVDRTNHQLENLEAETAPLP

Consider `O=C1c2ccccc2-c2nc3ccccc3nc21`, for which the EC50 was 0.307 µM (active) in test [1], 42.2 µM (active) in test [2], > 120 µM (not active) with H4 and 1.22 µM (active) in test [3]. Also, the values for the IC50 in test [4] and in test [5] were 8.84 µM (active) and 5.17 µM (active), respectively.

As for `CC1=NNC(=O)/C1=C\c1cn(-c2ccccc2)nc1-c1ccccc1`, the IC50 in test [6] is 2 µM (active); in test [7], 6.83 µM (active); in the test “cells”, 20.6 µM (active); in test [15], 4.43 µM (active); on Beta Lactamase, 49.8 µM (inactive). For the same compound, the CC50 in test [8] was 6.16 µM (active); in [9], 13 µM (active); in test [10], 10.1 µM (active). For the same compound, the AC50 was 1.92 µM (active) in test [11]; 7.76 µM (active) in the test with INS1; 8.42 µM (active) in test [12]; 8.9 µM (active) in test [13]; 9.3 µM (active) in test [14]. The concentration giving a half-maximal response (EC50) was 0.978 µM (active) at Protein RecA, > 59.7 µM (inactive) in the test with HEK293 [16] and > 59.7 µM (inactive) with HEK293 [17].

Turning to `c1ccc(-c2cc(-c3nnc4sc(-c5ccccn5)nn34)[nH]n2)cc1`, the IC50 with H9c2 was > 79 µM (inactive); in test [18], 165 µM (inactive).

As to `N#Cc1ccccc1CSc1nc2cc(Br)c[nH]c-2n1`, the IC50 in test [19] was 83.3 µM (inactive).

As for `CC(C)[C@@]1(NC(=O)[C@@H]2C[C@@H]3c4cccc5[nH]cc(c45)C[C@H]3N(C)C2)O[C@@]2(O)[C@@H]3CCCN3C(=O)[C@H](Cc3ccccc3)N2C1=O` [DIHYDROERGOCRISTINE MESYLATE], the EC50 at Mu-type opioid receptor was 92.5 µM (inactive).

Values taken from ChEMBL document CHEMBL1201862, “PubChem BioAssay data set” (2004).
